According to the supplement of paper PMC10307832:

Legend:
Test in all cases: relative viability (nuclei count vs DMSO), 5 days (fraction); higher = more cells survive
Dinaciclib + Bortezomib = compound: CCc1cnn2c(NCc3ccc[n+]([O-])c3)cc(N3CCCC[C@H]3CCO)nc12 [Dinaciclib] + CC(C)C[C@H](NC(=O)[C@H](Cc1ccccc1)NC(=O)c1cnccn1)B(O)O [Bortezomib] (partner 0.002 µM)
Method in brief: (§1)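 Values are medians from duplicate plates. Each reflects relative viability, defined as the nuclei count of treated wells over that of vehicle wells. Lung cancer cell lines in 1536-well plates were pin-tool dosed one day after seeding with one drug alone or with a fixed anchor-drug dose plus five library-drug doses (not always all listed) in √10 steps, then fixed, stained and imaged at 4× after 5 days.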

Dinaciclib + Palbociclib = compound: CCc1cnn2c(NCc3ccc[n+]([O-])c3)cc(N3CCCC[C@H]3CCO)nc12 [Dinaciclib] + CC(=O)c1c(C)c2cnc(Nc3ccc(N4CCNCC4)cn3)nc2n(C2CCCC2)c1=O [Palbociclib] (partner 0.5 µM)
Method in brief: as §1

Dinaciclib + Pemetrexed = compound: CCc1cnn2c(NCc3ccc[n+]([O-])c3)cc(N3CCCC[C@H]3CCO)nc12 [Dinaciclib] + Nc1nc2[nH]cc(CCc3ccc(C(=O)N[C@@H](CCC(=O)O)C(=O)O)cc3)c2c(=O)[nH]1 [Pemetrexed] (partner 0.2 µM)
Method in brief: as §1

Dinaciclib + Tozasertib = compound: CCc1cnn2c(NCc3ccc[n+]([O-])c3)cc(N3CCCC[C@H]3CCO)nc12 [Dinaciclib] + Cc1cc(Nc2cc(N3CCN(C)CC3)nc(Sc3ccc(NC(=O)C4CC4)cc3)n2)n[nH]1 [Tozasertib] (partner 0.1 µM)
Method in brief: as §1

Dinaciclib + OSI-027 = compound: CCc1cnn2c(NCc3ccc[n+]([O-])c3)cc(N3CCCC[C@H]3CCO)nc12 [Dinaciclib] + COc1cccc2cc(-c3nc([C@H]4CC[C@H](C(=O)O)CC4)n4ncnc(N)c34)[nH]c12 [OSI-027] (partner 0.5 µM)
Method in brief: as §1

Row | Cell Line | relative viability (Dinaciclib + Bortezomib; first compound 0.009487 µM) | relative viability (Dinaciclib + Bortezomib; first compound 0.03 µM) | relative viability (Dinaciclib + Bortezomib; first compound 0.09487 µM) | relative viability (Dinaciclib + Bortezomib; first compound 0.3 µM) | relative viability (Dinaciclib + Palbociclib; first compound 0.009487 µM) | relative viability (Dinaciclib + Palbociclib; first compound 0.03 µM) | relative viability (Dinaciclib + Palbociclib; first compound 0.09487 µM) | relative viability (Dinaciclib + Palbociclib; first compound 0.3 µM) | relative viability (Dinaciclib + Pemetrexed; first compound 0.009487 µM) | relative viability (Dinaciclib + Pemetrexed; first compound 0.03 µM) | relative viability (Dinaciclib + Pemetrexed; first compound 0.09487 µM) | relative viability (Dinaciclib + Pemetrexed; first compound 0.3 µM) | relative viability (Dinaciclib + Tozasertib; first compound 0.009487 µM) | relative viability (Dinaciclib + Tozasertib; first compound 0.03 µM) | relative viability (Dinaciclib + Tozasertib; first compound 0.09487 µM) | relative viability (Dinaciclib + Tozasertib; first compound 0.3 µM) | relative viability (Dinaciclib + OSI-027; first compound 0.009487 µM) | relative viability (Dinaciclib + OSI-027; first compound 0.03 µM) | relative viability (Dinaciclib + OSI-027; first compound 0.09487 µM) | relative viability (Dinaciclib + OSI-027; first compound 0.3 µM)
1 | EKVX | 1.02 | 0.451 | 0.109 | 0.149 | 0.323 | 0.234 | 0.114 | 0.113 | 0.35 | 0.267 | 0.122 | 0.123 | 0.398 | 0.253 | 0.074 | 0.0722 | 0.694 | 0.59 | 0.204 | 0.105
2 | HARA | 0.888 | 0.0756 | 0.0605 | 0.0587 | 0.204 | 0.126 | 0.0948 | 0.0798 | 0.24 | 0.172 | 0.122 | 0.0976 | 0.105 | 0.0553 | 0.0492 | 0.0424 | 0.532 | 0.064 | 0.04 | 0.0478
3 | EMC-BAC-2 | 0.978 | 0.779 | 0.137 | 0.148 | 0.46 | 0.323 | 0.224 | 0.248 | 0.451 | 0.381 | 0.288 | 0.259 | 0.265 | 0.209 | 0.142 | 0.121 | 0.353 | 0.188 | 0.207 | 0.217
4 | PC-14 | 0.807 | 0.109 | 0.0534 | 0.0475 | 0.215 | 0.0424 | 0.0361 | 0.0423 | 0.111 | 0.0682 | 0.0557 | 0.0571 | 0.454 | 0.0566 | 0.0448 | 0.038 | 0.66 | 0.0841 | 0.0393 | 0.0423
5 | NCI-H520 | 0.23 | 0.105 | 0.103 | 0.14 | 0.232 | 0.142 | 0.134 | 0.126 | 0.483 | 0.123 | 0.139 | 0.127 | 0.473 | 0.201 | 0.181 | 0.208 | 0.277 | 0.179 | 0.19 | 0.156
6 | NCI-H1755 | 0.889 | 0.884 | 0.171 | 0.17 | 0.423 | 0.316 | 0.223 | 0.238 | 0.397 | 0.272 | 0.204 | 0.261 | 0.53 | 0.401 | 0.2 | 0.234 | 0.763 | 0.519 | 0.194 | 0.258
7 | NCI-H2087 | 0.998 | 0.135 | 0.142 | 0.123 | 0.22 | 0.086 | 0.0942 | 0.0781 | 0.687 | 0.109 | 0.106 | 0.101 | 0.222 | 0.0979 | 0.0821 | 0.0868 | 0.529 | 0.0975 | 0.11 | 0.0895
8 | NCI-H2023 | 1 | 0.066 | 0.0634 | 0.0575 | 0.301 | 0.0599 | 0.0471 | 0.063 | 0.165 | 0.0899 | 0.0697 | 0.0581 | 0.446 | 0.0768 | 0.0628 | 0.0577 | 0.395 | 0.0919 | 0.052 | 0.067
9 | CAL-12T | 0.484 | 0.203 | 0.142 | 0.127 | 0.121 | 0.137 | 0.108 | 0.128 | 0.771 | 0.141 | 0.133 | 0.13 | 0.166 | 0.0862 | 0.0939 | 0.0838 | 0.235 | 0.136 | 0.118 | 0.124
10 | NCI-H2085 | 1.06 | 0.446 | 0.26 | 0.233 | 0.514 | 0.503 | 0.22 | 0.211 | 0.916 | 0.279 | 0.211 | 0.217 | 0.802 | 0.373 | 0.3 | 0.308 | 0.748 | 0.264 | 0.243 | 0.196
11 | NCI-H650 | 0.295 | 0.132 | 0.129 | 0.123 | 0.374 | 0.171 | 0.128 | 0.101 | 0.877 | 0.305 | 0.115 | 0.139 | 0.493 | 0.183 | 0.154 | 0.153 | 0.57 | 0.203 | 0.158 | 0.15
12 | LCLC-97TM1 | 0.0824 | 0.0484 | 0.0476 | 0.0667 | 0.18 | 0.0731 | 0.0753 | 0.0729 | 0.152 | 0.0671 | 0.0619 | 0.062 | 0.172 | 0.115 | 0.128 | 0.112 | 0.298 | 0.167 | 0.122 | 0.113
13 | NCI-H2126 | 1.06 | 0.973 | 0.524 | 0.208 | 0.333 | 0.3 | 0.207 | 0.198 | 0.695 | 0.495 | 0.198 | 0.192 | 0.799 | 0.218 | 0.222 | 0.19 | 0.784 | 0.381 | 0.251 | 0.204
14 | 201T | 1.15 | 0.718 | 0.321 | 0.281 | 0.354 | 0.285 | 0.231 | 0.228 | 0.317 | 0.311 | 0.206 | 0.187 | 0.915 | 0.293 | 0.274 | 0.263 | 0.801 | 0.297 | 0.119 | 0.183
15 | NCI-H1915 | 0.81 | 0.23 | 0.112 | 0.105 | 0.474 | 0.121 | 0.125 | 0.113 | 0.471 | 0.439 | 0.11 | 0.0872 | 0.303 | 0.149 | 0.13 | 0.115 | 0.525 | 0.169 | 0.156 | 0.138
16 | BEN | 0.817 | 0.497 | 0.159 | 0.247 | 0.458 | 0.386 | 0.287 | 0.296 | 1.07 | 0.501 | 0.23 | 0.274 | 0.568 | 0.638 | 0.268 | 0.348 | 0.289 | 0.264 | 0.191 | 0.198
